The subject of series [1] is Rattus norvegicus. Briefly: Anti-inflammatory activity in carrageenan-induced paw edema Wistar albino Rattus norvegicus (rat) model assessed as change in paw volume at 25 mg/kg, po administered 1 hr prior to carrageenan-challenge measured after 3 hr by plethysmometer (reference value: 1.200 +/-0.08 ml). Format: functional.
In series [2] the test system is Rattus norvegicus. Briefly: Anti-inflammatory activity in carrageenan-induced paw edema Wistar albino Rattus norvegicus (rat) model assessed as change in paw volume at 25 mg/kg, po administered 1 hr prior to carrageenan-challenge measured after 2 hr by plethysmometer (reference value: 1.110 +/-0.07 ml). In kind it is functional. (The carrageenan paw model is a standard test of acute inflammation.)

The test system of series [3] is Rattus norvegicus. Nature of the series: Anti-inflammatory activity in carrageenan-induced paw edema Wistar albino Rattus norvegicus (rat) model assessed as change in paw volume at 25 mg/kg, po administered 1 hr prior to carrageenan-challenge measured after 1 hr by plethysmometer (reference value: 0.900 +/-0.03 ml). Format: functional.
The test system of series [4] is Rattus norvegicus. Nature of the series: Anti-inflammatory activity in Wistar albino Rattus norvegicus (rat) assessed as inhibition of carrageenan-induced paw edema at 25 mg/kg, po administered 1 hr prior to carrageenan-challenge measured after 1 hr by plethysmometer. Format: functional.
Series [5] relates to Rattus norvegicus. Briefly: Anti-inflammatory activity in Wistar albino Rattus norvegicus (rat) assessed as inhibition of carrageenan-induced paw edema at 25 mg/kg, po administered 1 hr prior to carrageenan-challenge measured after 3 hr by plethysmometer. Format: functional.
Series [6] relates to Rattus norvegicus. Briefly: Anti-inflammatory activity in Wistar albino Rattus norvegicus (rat) assessed as inhibition of carrageenan-induced paw edema at 25 mg/kg, po administered 1 hr prior to carrageenan-challenge measured after 2 hr by plethysmometer. In kind it is functional.
Another series relates to Mus musculus. Nature of the series: Analgesic activity in Albino Mus musculus (mouse) assessed as inhibition of acetic acid-induced abdominal writhings at 25 mg/kg, po administered 50 min prior to acetic acid injection measured after 10 min. Format: functional. As to conditions: Abdomen.
Series [7] relates to Rattus norvegicus. Nature of the series: Gastrointestinal toxicity in Wistar albino Rattus norvegicus (rat) stress model assessed as ulcerogenicity index at 25 mg/kg/day, po for 4 days measured on day 5. In kind it is organism-based. Also noted: route oral. The conditions noted are these: in vivo, 96 h.
The test system of series [8] is Rattus norvegicus. Briefly: Gastrointestinal toxicity in Wistar albino Rattus norvegicus (rat) stress model assessed as ulcerogenicity index at 25 mg/kg/day, po for 4 days measured on day 5 relative to diclofenac sodium. Format: organism-based. As to conditions: in vivo, 96 h. Further details: route oral.

Usually inhibition in vivo stands for the share of the control response that was lost under treatment.

On to `Nn1c(-c2csc(-c3ccccc3)n2)n[nH]c1=O`, for which the Activity in the series on Rattus norvegicus [1] stood at 1.074 mL; in the series on Rattus norvegicus [2] it was 0.979 mL; in the series on Rattus norvegicus [3], 0.844 mL. Moreover, the inhibition in vivo at 25 mg/kg in the series on Rattus norvegicus [4] worked out at 15.2%; in the series on Rattus norvegicus [5], 19%; with Rattus norvegicus [6] it was 23.1%; in the series on Mus musculus it was 19.7%.
Regarding `Sc1nnc(-c2csc(-c3ccccc3)n2)o1`, the Activity stood at 0.84 mL with Rattus norvegicus [1], 0.78 mL with Rattus norvegicus [2], 0.735 mL with Rattus norvegicus [3] and 10% in the series with Rattus norvegicus [8]. Further, the inhibition in vivo at 25 mg/kg was 37.9% in the series on Rattus norvegicus [4], 50.8% in the series with Rattus norvegicus [5], 53.8% with Rattus norvegicus [6] and 58.1% with Mus musculus. In the series with Rattus norvegicus [7], the UI is recorded as 0.52.
On to `c1ccc(-c2nc(-c3nnc(SCCN4CCOCC4)o3)cs2)cc1`, for which the Activity with Rattus norvegicus [1] was 1.076 mL; in the series on Rattus norvegicus [2], 0.995 mL; in the series on Rattus norvegicus [3], 0.864 mL. Besides, the inhibition in vivo at 25 mg/kg in the series on Rattus norvegicus [4] was 14.5%; in the series on Rattus norvegicus [5] it was 21.6%; with Rattus norvegicus [6], 23.5%; in the series on Mus musculus it was 21.8%.
In the case of `CN(C)CCSc1nnc(-c2csc(-c3ccccc3)n2)o1`, the Activity with Rattus norvegicus [1] amounted to 0.999 mL; in the series with Rattus norvegicus [2] it was 0.904 mL; with Rattus norvegicus [3], 0.787 mL. Also, the inhibition in vivo at 25 mg/kg in the series on Rattus norvegicus [4] was 22.7%; in the series with Rattus norvegicus [5], 25.9%; with Rattus norvegicus [6] it was 31.1%; with Mus musculus, 18.6%.
As for `S=c1oc(-c2csc(-c3ccccc3)n2)nn1CN1CCCCC1`, the Activity is 0.862 mL in the series with Rattus norvegicus [1], 0.812 mL with Rattus norvegicus [2], 0.764 mL in the series on Rattus norvegicus [3] and 10% with Rattus norvegicus [8]. The inhibition in vivo at 25 mg/kg was found to be 44.8% in the series with Rattus norvegicus [4], 55.5% in the series on Rattus norvegicus [5], 57.4% in the series with Rattus norvegicus [6] and 58.7% with Mus musculus. The UI in the series on Rattus norvegicus [7] is 0.54.
`CCOC(=O)c1cnn(C(=O)c2csc(-c3ccccc3)n2)c1N`: the Activity in the series on Rattus norvegicus [1] turned out to be 0.79 mL; with Rattus norvegicus [2] it was 0.74 mL; in the series on Rattus norvegicus [3], 0.721 mL; with Rattus norvegicus [8], 10%. Also, the inhibition in vivo at 25 mg/kg with Rattus norvegicus [4] came to 45.1%; in the series with Rattus norvegicus [5], 60.3%; in the series with Rattus norvegicus [6] it was 63%; with Mus musculus, 61.2%. Besides, in the series on Rattus norvegicus [7], the UI is 0.6.
As to `Nc1cc(-c2ccccc2)nn1C(=O)c1csc(-c2ccccc2)n1`, the Activity in the series with Rattus norvegicus [1] amounted to 0.942 mL; in the series with Rattus norvegicus [2], 0.873 mL; in the series on Rattus norvegicus [3], 0.851 mL; with Rattus norvegicus [8], 10%. The inhibition in vivo at 25 mg/kg in the series on Rattus norvegicus [4] was 42.1%; with Rattus norvegicus [5], 55.2%; in the series on Rattus norvegicus [6], 60.5%; with Mus musculus, 60.1%. The UI in the series with Rattus norvegicus [7] came to 0.62.
As to `c1ccc(-c2nc(-c3nnn[nH]3)cs2)cc1`, the Activity is 0.935 mL in the series on Rattus norvegicus [1], 0.885 mL in the series with Rattus norvegicus [2] and 0.825 mL in the series with Rattus norvegicus [3]. In addition, the inhibition in vivo at 25 mg/kg in the series on Rattus norvegicus [4] came to 30.8%; with Rattus norvegicus [5], 40.4%; in the series on Rattus norvegicus [6], 38.1%; in the series on Mus musculus it was 16.5%.
Take `c1ccc(-c2nc(-c3nnco3)cs2)cc1`: the Activity amounted to 1.052 mL in the series on Rattus norvegicus [1], 0.962 mL in the series with Rattus norvegicus [2] and 0.842 mL with Rattus norvegicus [3]. The inhibition in vivo at 25 mg/kg in the series with Rattus norvegicus [4] amounted to 24.2%; in the series with Rattus norvegicus [5], 27%; with Rattus norvegicus [6], 31.5%; in the series on Mus musculus it was 18.1%.
Take `Nc1nnc(-c2csc(-c3ccccc3)n2)o1`: the Activity was determined as 1.105 mL in the series with Rattus norvegicus [1], 1.012 mL in the series on Rattus norvegicus [2] and 0.88 mL in the series with Rattus norvegicus [3]. In addition, the inhibition in vivo at 25 mg/kg with Rattus norvegicus [4] is 18.2%; with Rattus norvegicus [5], 21.4%; with Rattus norvegicus [6], 25.5%; in the series with Mus musculus, 20.3%.
As to `O=c1[nH]nc(-c2csc(-c3ccccc3)n2)o1`, the Activity in the series on Rattus norvegicus [1] turned out to be 0.935 mL; in the series on Rattus norvegicus [2], 0.885 mL; with Rattus norvegicus [3], 0.825 mL; in the series on Rattus norvegicus [8], 10%. The inhibition in vivo at 25 mg/kg with Rattus norvegicus [4] was determined as 34.8%; with Rattus norvegicus [5], 48.4%; with Rattus norvegicus [6] it was 49.1%; with Mus musculus it was 42.2%. Besides, the UI in the series with Rattus norvegicus [7] worked out at 0.44.
For `O=C([O-])Cc1ccccc1Nc1c(Cl)cccc1Cl.[Na+]` [DICLOFENAC SODIUM], the Activity with Rattus norvegicus [1] worked out at 0.85 mL; in the series on Rattus norvegicus [2], 0.8 mL; in the series on Rattus norvegicus [3], 0.762 mL. In addition, the inhibition in vivo at 25 mg/kg with Rattus norvegicus [4] is 40.6%; with Rattus norvegicus [5] it was 54.9%; in the series with Rattus norvegicus [6], 56.7%; in the series on Mus musculus, 58%. The UI in the series with Rattus norvegicus [7] was 4.67.

Source of the values: ChEMBL document CHEMBL3046170, “Docking, synthesis, and pharmacological investigation of novel substituted thiazole derivatives as non-carboxylic, anti-inflammatory, and analgesic agents” (Med Chem Res, 2013).
